Drawing on ChEMBL document CHEMBL5046291, “Evodiamine-Inspired Topoisomerase-Histone Deacetylase Dual Inhibitors: Novel Orally Active Antitumor Agents for Leukemia Therapy” (J Med Chem, 2022), this text covers inhibition and IC50 for two compounds.

Activity calls are given as the source filed them. The calls are words filed in the database; no cut-off is given here.

The target in assay [1] is T1, DNA topoisomerase 1 (Homo sapiens) (UniProt P11387).
T1 sequence (whole entry): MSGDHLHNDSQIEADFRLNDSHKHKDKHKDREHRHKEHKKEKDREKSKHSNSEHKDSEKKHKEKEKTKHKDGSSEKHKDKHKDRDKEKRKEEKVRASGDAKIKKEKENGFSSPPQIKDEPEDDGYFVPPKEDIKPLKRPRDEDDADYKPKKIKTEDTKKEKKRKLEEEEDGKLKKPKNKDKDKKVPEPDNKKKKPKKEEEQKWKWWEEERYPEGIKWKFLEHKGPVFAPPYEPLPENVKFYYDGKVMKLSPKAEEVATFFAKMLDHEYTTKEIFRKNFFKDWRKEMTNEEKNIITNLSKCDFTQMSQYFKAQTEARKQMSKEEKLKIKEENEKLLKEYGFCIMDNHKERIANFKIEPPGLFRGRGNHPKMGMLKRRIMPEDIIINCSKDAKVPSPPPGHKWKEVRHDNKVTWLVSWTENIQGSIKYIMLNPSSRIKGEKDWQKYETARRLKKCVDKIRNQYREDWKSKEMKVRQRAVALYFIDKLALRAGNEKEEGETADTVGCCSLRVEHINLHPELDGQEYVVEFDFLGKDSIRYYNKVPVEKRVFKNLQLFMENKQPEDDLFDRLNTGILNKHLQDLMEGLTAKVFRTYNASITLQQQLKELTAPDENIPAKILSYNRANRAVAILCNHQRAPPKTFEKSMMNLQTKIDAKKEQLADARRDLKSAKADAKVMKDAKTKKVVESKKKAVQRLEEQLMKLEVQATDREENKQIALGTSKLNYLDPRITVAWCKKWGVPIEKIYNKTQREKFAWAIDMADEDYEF
Briefly: Inhibition of recombinant Top1 (unknown origin) assessed as inhibition of relaxation of supercoiled pBR322 plasmid DNA at 100 uM incubated for 15 mins by ethidium bromide staining based agarose gel electrophoresis analysis.

The subject of a further assay is K562. The assay can be described thus: Antiproliferative activity against human K562 cells assessed as cell growth inhibition incubated for 8 hrs by CCK8 assay. Conditions: K562, 8 h. Type of assay: functional, cell-based. For orientation: Formazan colour is commonly taken as a measure of viable cells.
For assay [2], the target named is T2, Protein deacetylase HDAC6 (Homo sapiens, UniProt Q9UBN7).
T2 sequence (Q9UBN7 whole entry): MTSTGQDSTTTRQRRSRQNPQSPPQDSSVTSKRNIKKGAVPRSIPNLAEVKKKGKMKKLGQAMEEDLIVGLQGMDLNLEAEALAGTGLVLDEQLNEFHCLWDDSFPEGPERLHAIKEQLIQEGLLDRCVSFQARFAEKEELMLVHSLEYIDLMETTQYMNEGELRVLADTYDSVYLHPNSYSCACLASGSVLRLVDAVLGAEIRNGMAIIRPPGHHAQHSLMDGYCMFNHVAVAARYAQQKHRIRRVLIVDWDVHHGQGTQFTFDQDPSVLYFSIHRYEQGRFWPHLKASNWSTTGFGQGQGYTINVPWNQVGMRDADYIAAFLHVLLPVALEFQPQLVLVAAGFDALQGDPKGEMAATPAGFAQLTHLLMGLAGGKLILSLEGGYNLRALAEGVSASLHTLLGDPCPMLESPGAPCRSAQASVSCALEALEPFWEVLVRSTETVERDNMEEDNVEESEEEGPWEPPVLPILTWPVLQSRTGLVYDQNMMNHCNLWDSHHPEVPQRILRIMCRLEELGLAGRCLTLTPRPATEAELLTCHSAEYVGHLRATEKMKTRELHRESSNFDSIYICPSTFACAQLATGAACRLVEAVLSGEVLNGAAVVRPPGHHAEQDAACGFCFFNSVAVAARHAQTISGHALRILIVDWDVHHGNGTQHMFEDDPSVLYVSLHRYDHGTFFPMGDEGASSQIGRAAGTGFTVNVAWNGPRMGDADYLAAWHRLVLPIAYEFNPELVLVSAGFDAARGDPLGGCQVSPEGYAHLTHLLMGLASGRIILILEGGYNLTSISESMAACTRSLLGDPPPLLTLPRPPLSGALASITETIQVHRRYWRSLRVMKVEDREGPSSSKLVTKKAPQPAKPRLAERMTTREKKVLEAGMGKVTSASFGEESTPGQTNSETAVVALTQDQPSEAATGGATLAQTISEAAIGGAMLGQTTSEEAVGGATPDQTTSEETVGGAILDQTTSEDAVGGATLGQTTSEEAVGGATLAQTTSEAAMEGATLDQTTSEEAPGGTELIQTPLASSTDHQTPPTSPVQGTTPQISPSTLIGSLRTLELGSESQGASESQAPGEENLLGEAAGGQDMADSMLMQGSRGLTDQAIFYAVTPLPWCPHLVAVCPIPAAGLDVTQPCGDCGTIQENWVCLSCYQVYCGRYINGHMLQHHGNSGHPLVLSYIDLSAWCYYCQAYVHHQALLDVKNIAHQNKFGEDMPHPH
Briefly: Inhibition of full-length recombinant N-terminal GST-tagged human HDAC6 expressed in baculovirus infected Sf9 cells using Ac-Leu-Gly-Lys(Ac)-AMC as substrate preincubated for 5 mins followed by substrate addition and further incubated for 30 mins by fluorescence based microtiter plate reader assay.

Another assay concerns HepG2. The assay can be described thus: Antiproliferative activity against human HepG2 cells assessed as cell growth inhibition incubated for 8 hrs by CCK8 assay. The class given is functional, cell-based. Conditions: HepG2, 8 h.
A further assay concerns the target T3, Histone deacetylase 8 (Homo sapiens, UniProt Q9BY41).
T3 sequence (Q9BY41 whole entry): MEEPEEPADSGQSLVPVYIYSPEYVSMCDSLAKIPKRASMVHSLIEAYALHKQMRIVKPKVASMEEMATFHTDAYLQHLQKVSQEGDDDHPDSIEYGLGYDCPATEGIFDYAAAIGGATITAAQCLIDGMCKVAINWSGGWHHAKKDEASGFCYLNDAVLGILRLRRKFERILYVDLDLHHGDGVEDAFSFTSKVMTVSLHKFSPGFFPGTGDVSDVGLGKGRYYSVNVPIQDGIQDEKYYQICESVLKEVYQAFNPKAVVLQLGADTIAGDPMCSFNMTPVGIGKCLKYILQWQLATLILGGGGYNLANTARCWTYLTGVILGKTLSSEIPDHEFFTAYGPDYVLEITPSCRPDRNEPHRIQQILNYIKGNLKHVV
The assay can be described thus: Inhibition of full-length recombinant C-terminal His-tagged human HDAC8 expressed in baculovirus infected Sf9 insect cells using Ac-Leu-Gly-Lys(Tfa)-AMC as substrate preincubated for 5 mins followed by substrate addition and further incubated for 30 mins by fluorescence based microtiter plate reader assay.

Another assay deals with Histone deacetylase 2 (Homo sapiens, UniProt Q92769). Briefly: Inhibition of recombinant full length C-terminal GST tagged human HDAC2 expressed in baculovirus infected Sf9 insect cells using Ac-Leu-Gly-Lys(Ac)-AMC as substrate preincubated for 5 mins followed by substrate addition and further incubated for 30 mins by fluorescence based microtiter plate reader assay.
Sequence of Histone deacetylase 2 (Q92769 whole entry): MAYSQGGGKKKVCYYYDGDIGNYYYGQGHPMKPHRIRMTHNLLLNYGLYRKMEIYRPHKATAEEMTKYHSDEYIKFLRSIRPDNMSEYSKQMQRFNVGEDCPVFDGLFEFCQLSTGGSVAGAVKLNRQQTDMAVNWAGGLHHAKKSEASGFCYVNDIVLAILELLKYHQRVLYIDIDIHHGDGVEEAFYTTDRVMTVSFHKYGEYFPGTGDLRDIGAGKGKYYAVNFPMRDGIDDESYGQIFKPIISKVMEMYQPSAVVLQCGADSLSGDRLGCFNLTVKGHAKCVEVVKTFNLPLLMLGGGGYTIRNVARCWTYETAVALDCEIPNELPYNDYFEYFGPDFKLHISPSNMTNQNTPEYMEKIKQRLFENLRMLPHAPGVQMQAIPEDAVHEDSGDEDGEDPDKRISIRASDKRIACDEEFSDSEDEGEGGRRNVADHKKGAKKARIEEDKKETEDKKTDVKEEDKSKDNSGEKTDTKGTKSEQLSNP
Assay [3] concerns the target T1, DNA topoisomerase 1 (Homo sapiens). Briefly: Inhibition of recombinant Top1 (unknown origin) assessed as inhibition of relaxation of supercoiled pBR322 plasmid DNA at 50 uM incubated for 15 mins by ethidium bromide staining based agarose gel electrophoresis analysis.

`CN1c2ccc(F)cc2C(=O)N2CCc3c([nH]c4ccc(OCc5ccc(/C=C/C(=O)Nc6ccccc6N)cc5)cc34)C21` (centres undefined): the inhibition entry in assay [1] and in assay [3] was “Active” each time. The IC50 in the assay on K562 was found to be 120 nM; in assay [2] it was 11000 nM; in the assay with HepG2 it was 290 nM; at Histone deacetylase 8 it was 690 nM; on Histone deacetylase 2, 42000 nM.

In the case of `CN1c2ccc(F)cc2C(=O)N2CCc3c([nH]c4ccc(OCc5ccc(/C=C/C(=O)NO)cc5)cc34)C21` (centres undefined), the inhibition result in assay [1] and in assay [3] was “Active” in each case. Moreover, the concentration for half-maximal inhibition (IC50) worked out at 350 nM with K562; 89 nM in assay [2]; 260 nM in the assay on HepG2; 9800 nM on Histone deacetylase 8; 140 nM at Histone deacetylase 2.

The term IC50 denotes the point on the concentration scale where inhibition reaches its midpoint.
